20 compounds from US8058243B2, “Method for treating a brain cancer with ifenprodil” (HSC Research and Development Limited Partnership, priority 2006, dated 2011) can be followed below.

Where a name gives a salt, the structure may show the parent alone. Read-outs that look alike come from different tables or passages of the source.

For the assay, the system named is murine neural precursor cells (neurosphere cultures). As to the kind of experiment: HTS of LOPAC library against secondary neurosphere cultures, MTT proliferation assay at 3 μM, day 7 (z score, P value). Format: cell-based, mouse.
[1] abbreviates: LOPAC primary screen, neurosphere MTT proliferation, 3 μM, day 7.
[2] abbreviates: yes/no: significantly inhibited neurosphere proliferation (P<0.01) in the primary screen.
The mark [3] stands for this setting: yes = significantly inhibited neurosphere proliferation (P<0.01) in the primary screen.
Setting [4] is: LOPAC library screen at 3 μM, secondary neurosphere cultures, MTT.
Where [5] appears, read: yes/no: significantly inhibited neurosphere proliferation (P<0.01) in primary screen.
The mark [6] stands for this setting: primary LOPAC screen, 3 μM, MTT, neurosphere proliferation.
Where [7] appears, read: yes/no: significantly inhibited neurosphere proliferation in the primary screen.
Setting [8] is: yes/no: significantly inhibited neurosphere proliferation in primary screen.
Where [9] appears, read: LOPAC library screen, 3 μM, MTT, secondary neurosphere cultures, day 7.

With `CN1C2CCC1CC(OC(c1ccccc1)c1ccc(Cl)cc1)C2.Cl` (stereo not drawn), the “Z Score” value was −9.672. This compound returned a Z score under setting [1] of −9.672. Besides, under setting [2], the Activity entry was “yes”.

`CN1CCN(C2=Nc3cc(Cl)ccc3Nc3ccccc32)CC1` [Clozapine]: for the setting “168 h, 3 µM”, the “Z Score” value is listed as 0.5473 and the Z score amounted to 0.547.

With R(−)-Me5, the “Z Score” value is on record as −1.414. Under setting [1], this compound yielded a Z score of −1.414. For the same compound, the Activity entry under setting [3] is “no”.

On to `COc1[nH]c2ccc(F)cc2c1C(=O)OCC1CCN(CCNS(C)(=O)=O)CC1.NS(=O)(=O)O` [GR 125487 sulfamate salt], for which the “Z Score” value under setting [4] is on record as −0.1942. Under setting [1], the Z score is on record as −0.194. Besides, the Activity entry under setting [5] is on record as “no”.

As to `N[C@H]1CONC1=O` [L-Cycloserine], under setting [4], the “Z Score” value is reported as −0.1552. Under setting [6], this compound displayed a Z score of −0.155. Under setting [7], the Activity result was “no”.

Take `CC(=N)NCCCC[C@H](N)C(=O)O.Cl` [L-N6-(1-Iminoethyl)lysine hydrochloride]: the “Z Score” value is −0.3809. Under setting [1], this compound showed a Z score of −0.381. In addition, the Activity result under setting [5] is on record as “no”.

For `FC(F)(F)c1ccccc1-n1ccnc1` [1-[2-(Trifluoromethyl)phenyl]imidazole], under “168 h, 3 µM”, the “Z Score” value is reported as −0.1576 and the Z score is −0.158. For the same compound, the Activity entry under setting [8] is “no”.

With `CC(=O)[C@H]1CC[C@H]2[C@@H]3CC[C@H]4C[C@H](O)CC[C@]4(C)[C@H]3CC[C@]12C` [5alpha-Pregnan-3alpha-ol-20-one], the “Z Score” value worked out at 0.9335. Under setting [1], this compound had a Z score of 0.934. Further, the Activity entry under setting [8] is reported as “no”.

`CCCn1c(=O)c2[nH]c(-c3ccc(OCC(=O)Nc4ccc(C#N)cc4)cc3)nc2n(CCC)c1=O` [MRS 1754]: the “Z Score” value turned out to be 0.9268. The same compound returned a Z score under setting [1] of 0.927. The Activity result under setting [3] is given as “no”.

`CC(C)NCC(O)c1ccc(NS(C)(=O)=O)cc1.Cl` (stereo not drawn) [(B1)-Sotalol hydrochloride]: the “Z Score” value is reported as −0.813.

In the case of “Histamine, R(−)-alpha-methyl-, dihydrochloride”, the “Z Score” value under setting [9] is on record as −1.469. Under setting [1], this compound had a Z score of −1.469. Under setting [5], the Activity result is “no”.

With `O=C(CCCN1CCC2(CC1)C(=O)NCN2c1ccccc1)c1ccc(F)cc1` [Spiperone hydrochloride], the “Z Score” value under setting [4] is reported as −0.5168. Moreover, the Z score under setting [1] is recorded as −0.517. Moreover, the Activity result under setting [8] is “no”.

Regarding `Cc1cc(N)c2ccccc2[n+]1CCCCCCCCCC[n+]1c(C)cc(N)c2ccccc21` [Dequalinium (29), Dequalinium, reference compound], under setting [9], the “Z Score” value is −9.54. Under setting [1], this compound showed a Z score of −9.540. Further, the Activity result under setting [2] is listed as “yes”.

Take `CNCC(O)c1ccc(O)c(O)c1.Cl` (racemic) [(±)-Epinephrine hydrochloride]: the Z score under setting [1] is recorded as −0.328. In addition, the Activity result under setting [5] is recorded as “no”.

For the compound `O=c1onc2n1-c1cc(Br)ccc1OC2` [NS 2028], the “Z Score” value was −2.684. The same compound returned a Z score under setting [1] of −2.684. Also, under setting [3], the Activity result was “yes”.

As for `Nc1ncnc2c1ncn2C1CCCO1` (stereo not drawn) [SQ 22536], the “Z Score” value was 0.5616. This compound also displayed a Z score under setting [6] of 0.562. In addition, the Activity entry under setting [7] was “no”.

Consider `CCCOC(=O)c1c(-c2ccccc2)nc(CC)c(C(=O)SCC)c1CCC` [MRS 1523], for which the “Z Score” value is reported as −0.001312. The compound further registered a Z score under setting [1] of −0.001. Moreover, under setting [3], the Activity result was “no”.

With `O=C(CCCN1CCC(O)(c2ccc(Cl)cc2)CC1)c1ccc(F)cc1` [Haloperidol], the “Z Score” value under setting [4] is recorded as −0.7399. This compound registered a Z score under setting [1] of −0.740. The Activity result under setting [5] is reported as “no”.

With `C[C@H](O)[C@H](O)[C@H]1CNc2nc(N)[nH]c(=O)c2N1.Cl`, the “Z Score” value (LOPAC library screen, 3 μM, MTT, neurosphere cultures) is 0.9757. Besides, the Z score under setting [6] came out at 0.976. The Activity result under setting [7] is given as “no”.

On to `Br.C=CCN1CCc2c(cc(O)c(O)c2Cl)C(c2ccccc2)C1` (stereo not drawn) [(B1)-Chloro-APB hydrobromide], for which the “Z Score” value is −0.111.
